{
  "source": "patent US12473269B2",
  "about": "“Urolithin derivatives and methods of use thereof” (Vandria SA, priority 2021, dated 2025)",
  "origin": "cited, not measured here",
  "tested_on": "C2C12 myoblasts",
  "details": "treatment of C2C12 myoblasts; mitochondrial fragmentation and decrease in mitochondrial content; Ryu et al., Nat Med 2016",
  "data": [
    {"compound": "O=c1oc2cc(O)ccc2c2ccc(O)cc12", "note": "[UA, Urolithin A]", "values": [
      {"measurement": "induction of mitophagy", "result": "induction of mitophagy"}
    ]}
  ]
}
